Assay results taken from US20250215029A1 (Recludix Pharma, Inc., priority 2022, published 2025).

Key:
[1] = molecular target: T1, Recombinant STAT3 protein (STAT3 (G127-I722)) (Homo sapiens, UniProt P40763); test: STAT3 Fluorescence Polarization (FP) Assay; format: binding; settings: STAT3 25 nM, probe 5-FAM-GpYLPQTV-NH2 2 nM, 45-minute incubation; read-out: STAT3 (FP assay IC50)
T1 construct: Recombinant STAT3 protein (STAT3 (G127-I722))
How it was run: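 Displacement of a fluorescent phosphotyrosine peptide (5-FAM-GpYLPQTV-NH2, 2 nM) from 25 nM recombinant STAT3 G127-I722 was monitored by FP after 45 min at room temperature.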

[2] = molecular target: T2, Recombinant STAT6 protein (STAT6 (W123-T658)) (Homo sapiens, UniProt P42226); test: STAT6 Fluorescence Polarization (FP) Assay; format: binding; settings: STAT6 250 nM, probe 5-FAM-Ap[…]-NH2 2 nM, 45-minute incubation; read-out: STAT6 (FP assay IC50)
T2 construct: Recombinant STAT6 protein (STAT6 (W123-T658))
T2 sequence (P42226 123-658): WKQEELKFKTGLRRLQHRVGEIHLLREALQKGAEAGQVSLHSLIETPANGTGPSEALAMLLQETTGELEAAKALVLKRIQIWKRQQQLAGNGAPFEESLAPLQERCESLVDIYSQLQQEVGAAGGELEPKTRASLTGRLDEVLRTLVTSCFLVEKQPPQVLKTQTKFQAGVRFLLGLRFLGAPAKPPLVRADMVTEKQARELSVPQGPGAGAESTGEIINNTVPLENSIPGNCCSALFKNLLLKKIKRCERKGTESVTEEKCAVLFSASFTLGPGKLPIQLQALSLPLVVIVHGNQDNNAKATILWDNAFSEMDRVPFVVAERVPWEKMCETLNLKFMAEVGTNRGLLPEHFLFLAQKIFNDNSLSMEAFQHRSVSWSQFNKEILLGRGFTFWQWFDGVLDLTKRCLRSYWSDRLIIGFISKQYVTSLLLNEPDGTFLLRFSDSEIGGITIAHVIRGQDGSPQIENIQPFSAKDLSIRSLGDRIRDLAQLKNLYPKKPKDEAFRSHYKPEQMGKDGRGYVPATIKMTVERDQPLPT
How it was run: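 Displacement of a fluorescent phosphotyrosine peptide (2 nM) from 250 nM STAT6 (W123-T658) is measured by polarization after a 45-minute room-temperature incubation. Compounds are titrated serially at 1% DMSO, and IC50 values derive from regression of mP on log concentration.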

T1 sequence (P40763 127-722): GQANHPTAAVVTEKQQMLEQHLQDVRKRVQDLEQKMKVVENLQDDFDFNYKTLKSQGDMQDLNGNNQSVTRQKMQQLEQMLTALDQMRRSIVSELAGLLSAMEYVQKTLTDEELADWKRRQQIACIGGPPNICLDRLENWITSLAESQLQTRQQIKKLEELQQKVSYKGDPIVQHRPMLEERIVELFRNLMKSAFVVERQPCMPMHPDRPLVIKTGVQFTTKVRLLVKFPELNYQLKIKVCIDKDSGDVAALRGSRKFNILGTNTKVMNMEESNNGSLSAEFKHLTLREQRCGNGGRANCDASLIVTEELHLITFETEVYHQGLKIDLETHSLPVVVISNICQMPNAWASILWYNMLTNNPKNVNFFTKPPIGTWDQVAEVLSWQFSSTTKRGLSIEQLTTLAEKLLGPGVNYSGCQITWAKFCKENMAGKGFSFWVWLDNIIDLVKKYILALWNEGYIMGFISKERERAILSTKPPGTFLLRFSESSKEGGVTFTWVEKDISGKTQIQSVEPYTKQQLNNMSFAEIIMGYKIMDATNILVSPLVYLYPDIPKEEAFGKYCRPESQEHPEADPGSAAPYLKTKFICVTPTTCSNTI

SMILES | IC50 [1] [µM] | IC50 [2] [µM]
O=C(N[C@H]1CCCC[C@H]2CC[C@@H](C(=O)NCc3n[nH]c4ncccc34)N2C1=O)c1cc2cc(C(F)(F)P(=O)(O)O)ccc2s1 [Compound 37, ((2-(((3S,6S,10aS)-3-(((1H-pyrazolo[3,4-b]pyridin-3-yl)methyl)carbamoyl)-5-oxodecahydro-pyrrolo[1,2-a]azocin-6-yl)carbamoyyl)benzo[b]thiophen-5-yl)difluoro-methyl) phosphonic acid] | 0.1 to 1 | 0.3 to 3
Cn1c(C2CN(C(=O)[C@@H]3CC[C@@H]4CCCC[C@H](NC(=O)c5cc6cc(C(F)(F)P(=O)(O)O)ccc6s5)C(=O)N43)C2)nc2ccccc21 [Compound 38, (difluoro(2-(((3S,6S,10aS)-3-(3-(1-methyl-1H-benzo[d]imidazol-2-yl)azetidine-1-carbonyl)-5-oxodecahydropyrrolo [1,2-a]azocin-6-yl)carbamoyl)benzo[b]thiophen-5-yl)methyl) phosphonic acid] | < 0.1 | 0.3 to 3
O=C(N[C@H]1CCCC[C@H]2CC[C@@H](C(=O)N3CC(Oc4ccccc4)C3)N2C1=O)c1cc2cc(C(F)(F)P(=O)(O)O)ccc2s1 [Compound 39, (difluoro(2-(((3S,6S,10aS)-5-oxo-3-(3-phenoxyazetidine-1-carbonyl)decahydropyrrolo [1,2-a]azocin-6-yl)carbamoyl)benzo[b]thiophen-5-yl)methyl) phosphonic acid] | 0.1 to 1 | 0.3 to 3
C[C@]1(NC(=O)c2cc3cc(C(F)(F)P(=O)(O)O)ccc3s2)CCCC[C@H]2CC[C@@H](C(=O)N3CC(C(=O)N4CCOCC4)C3)N2C1=O [Compound 40, (difluoro(2-(((3S,6S,10aS)-6-methyl-3-(3-(morpholine-4-carbonyl)azetidine-1-carbonyl)-5-oxodecahydropyrrolo [1,2-a]azocin-6-yl)carbamoyl)benzo[b]thiophen-5-yl)methyl) phosphonic acid] | 0.1 to 1 | 3 to 30
O=C(N[C@H]1CCCC[C@H]2CC[C@@H](C(=O)N3CC4(CN(C(=O)Cc5ccccc5)C4)C3)N2C1=O)c1cc2cc(C(F)(F)P(=O)(O)O)ccc2s1 [Compound 42, (difluoro(2-(((3S,6S,10aS)-5-oxo-3-(6-(2-phenylacetyl)-2,6-diazaspiro[3.3]heptane-2-carbonyl)decahydropyrrolo [1,2-a]azocin-6-yl)carbamoyl)benzo[b]thiophen-5-yl)methyl) phosphonic acid] | 0.1 to 1 | ≤ 0.3
O=C(N[C@H]1CCC[C@H]2CC[C@@H](C(=O)N3CC(O)(c4ccccn4)C3)N2C1=O)c1cc2cc(C(F)(F)P(=O)(O)O)ccc2s1 [Compound 45, (difluoro(2-(((3S,6S,9aS)-3-(3-hydroxy-3-(pyridin-2-yl)azetidine-1-carbonyl)-5-oxooctahydro-1H-pyrrolo[1,2-a]azepin-6-yl)carbamoyl)benzo[b]thiophen-5-yl)methyl) phosphonic acid] | < 0.1 | 0.3 to 3
O=C(N[C@H]1CCC[C@H]2CC[C@@H](C(=O)N3CC(c4ncccn4)C3)N2C1=O)c1cc2cc(C(F)(F)P(=O)(O)O)ccc2s1 [Compound 46, (difluoro(2-(((3S,6S,9aS)-5-oxo-3-(3-(pyrimidin-2-yl)azetidine-1-carbonyl)octahydro-1H-pyrrolo[1,2-a]azepin-6-yl)carbamoyl)benzo[b]thiophen-5-yl)methyl) phosphonic acid] | < 0.1 | 3 to 30
N#CCC1CN(C(=O)[C@@H]2CC[C@@H]3CCC[C@H](NC(=O)c4cc5cc(C(F)(F)P(=O)(O)O)ccc5s4)C(=O)N32)C1 [Compound 50, ((2-(((3S,6S,9aS)-3-(3-(cyanomethyl)azetidine-1-carbonyl)-5-oxooctahydro-1H-pyrrolo[1,2-a]azepin-6-yl)carbamoyl)benzo[b]thiophen-5-yl)difluoromethyl) phosphonic acid] | 0.1 to 1 | 0.3 to 3
N#Cc1cccc(C2CN(C(=O)[C@@H]3CC[C@@H]4CCC[C@H](NC(=O)c5cc6cc(C(F)(F)P(=O)(O)O)ccc6s5)C(=O)N43)C2)c1 [Compound 51, ((2-(((3S,6S,9aS)-3-(3-(3-cyanophenyl)azetidine-1-carbonyl)-5-oxooctahydro-1H-pyrrolo[1,2-a]azepin-6-yl)carbamoyl)benzo[b]thiophen-5-yl)difluoromethyl) phosphonic acid] | < 0.1 | 0.3 to 3

Second part, the compound after the results:

IC50 [1] [µM] | IC50 [2] [µM] | SMILES
< 0.1 | 0.3 to 3 | O=C(N[C@H]1CCCC[C@H]2CC[C@@H](C(=O)N3CC(Cc4ccccc4)C3)N2C1=O)c1cc2cc(C(F)(F)P(=O)(O)O)ccc2s1 [Compound 36, ((2-(((3S,6S,10aS)-3-(3-benzylazetidine-1-carbonyl)-5-oxodecahydro-pyrrolo[1,2-a]azocin-6-yl)carbamoyl)benzo[b]thiophen-5-yl)difluoromethyl) phosphonic acid]
< 0.1 | 0.3 to 3 | O=C(N[C@H]1CCC[C@H]2CC[C@@H](C(=O)N3CC(c4nc5ccccc5[nH]4)C3)N2C1=O)c1cc2cc(C(F)(F)P(=O)(O)O)ccc2s1 [Compound 43, ((2-(((3S,6S,9aS)-3-(3-(1H-benzo[d]imidazol-2-yl)azetidine-1-carbonyl)-5-oxooctahydro-1H-pyrrolo[1,2-a]azepin-6-yl)carbamoyl)benzo[b]thiophen-5-yl)difluoromethyl) phosphonic acid]
1 to 10 | 0.3 to 3 | COc1ccc(N(C)C(=O)[C@@H]2CC[C@@H]3CCCC[C@H](NC(=O)c4cc5cc(C(F)(F)P(=O)(O)O)ccc5s4)C(=O)N32)cn1 [Compound 44, (difluoro(2-(((3S,6S,10aS)-3-((6-methoxypyridin-3-yl)(methyl)carbamoyl)-5-oxodecahydro-pyrrolo[1,2-a]azocin-6-yl)carbamoyl)benzo[b]thiophen-5-yl)methyl) phosphonic acid]
1 to 10 | 0.3 to 3 | COc1cc(CCN(C)C(=O)[C@@H]2CC[C@@H]3CCCC[C@H](NC(=O)c4cc5cc(C(F)(F)P(=O)(O)O)ccc5s4)C(=O)N32)ccn1 [Compound 47, (difluoro(2-(((3S,6S,10aS)-3-((2-(2-methoxypyridin-4-yl)ethyl)(methyl)carbamoyl)-5-oxodecahydropyrrolo [1,2-a]azocin-6-yl)carbamoyl)benzo[b]thiophen-5-yl)methyl) phosphonic acid]
1 to 10 | 3 to 30 | O=C(N[C@H]1CCCC[C@H]2CC[C@@H](C(=O)N3CCc4c(cc[nH]c4=O)C3)N2C1=O)c1cc2cc(C(F)(F)P(=O)(O)O)ccc2s1 [Compound 48, (difluoro(2-(((3S,6S,10aS)-5-oxo-3-(5-oxo-1,2,3,4,5,6-hexahydro-2,6-naphthyridine-2-carbonyl)decahydropyrrolo [1,2-a]azocin-6-yl)carbamoyl)benzo[b]thiophen-5-yl)methyl) phosphonic acid]
0.1 to 1 | 3 to 30 | O=C(N[C@H]1CCCC[C@H]2CC[C@@H](C(=O)NCc3cc[nH]c(=O)c3)N2C1=O)c1cc2cc(C(F)(F)P(=O)(O)O)ccc2s1 [Compound 49, (difluoro(2-(((3S,6S,10aS)-5-oxo-3-(((2-oxo-1,2-dihydropyridin-4-yl)methyl)carbamoyl)deca-hydropyrrolo[1,2-a]azocin-6-yl)carbamoyl)benzo[b]thiophen-5-yl)methyl) phosphonic acid]
